Measured values published in ChEMBL document CHEMBL5365439, “Development of a Selective Peptide κ-Opioid Receptor Antagonist by Late-Stage Functionalization with Cysteine Staples” (J Med Chem, 2023).
Calls of active or inactive are those of the source. No cut-off for these calls is given here. Numbered stars: 1 amine (or outer) side, 2 acyl side, 3 side chain; on linkers, the order of the positions; unused ones are H or OH. Bridge positions count the residues as written; N and C are the ends. Square brackets hold non-standard residues; d marks the D form. Peptide text beside a SMILES is read from it. CH2COCH2 = O=C(C[*:1])C[*:2]; CH2 = C([*:1])[*:2]; Mpa = O=C(O)CCS

What was measured:
[1] = biological target: T1, Kappa-type opioid receptor (Mus musculus, UniProt P33534); assay: Competitive antagonist activity at mouse KOR expressed in HEK293 cells at 0.3 to 10 uM preincubated for 30 mins followed by U50,488 addition and measured after 30 mins by fluorescence based schild regression analysis; format: functional, cell-based; settings: read-out: pA2 (converted)
[2] = test system: Mus musculus; assay: In vivo antagonist activity at KOR in CD-1 mouse model of U50,488 induced acute thermal nociception at 20 mg/kg, sc pretreated for 15 mins followed by U50,488 stimulation and measured after 30 to 60 mins by radiant heat tail flick assay; format: functional, organism-based; settings: time 45-75 min
[3] = biological target: Kappa-type opioid receptor (Mus musculus) (UniProt P33534); assay: Antagonist activity at KOR in C57BL/6 mouse DRG neurons assessed as inhibition of U50,488 induced calcium mobilization at 1 to 10 uM preincubated with compound followed by U50,488 addition and measured for 12 mins by single cell calcium microfluorimetry analysis; format: functional, cell-based; settings: DRG neuron, filed as antagonist, dose 1-10 µM
[4] = biological target: Delta-type opioid receptor (Mus musculus) (UniProt P32300); assay: Displacement of [3H]diprenorphine from mouse DOR expressed in HEK293 cell membrane at 10 uM incubated for 1 hr by radioligand displacement assay; format: cell membranes
[5] = test system: Mus musculus; assay: In vivo antagonist activity at KOR in CD-1 mouse model assessed as reversal of U50,488 induced motor impairment by measuring increase in latency to fall at 20 mg/kg, sc pretreated for 15 mins followed by U50,488 stimulation and measured at 30 mins by rotarod assay; format: functional, organism-based; settings: time 45.0 min
[6] = biological target: Kappa-type opioid receptor (Mus musculus) (UniProt P33534); assay: Antagonist activity at mouse KOR expressed in HEK293 cells assessed as forskolin-induced adenylyl cyclase-dependent cAMP formation at 10 uM incubated for 30 mins by HTRF analysis; format: functional, cell-based; settings: filed as antagonist
[7] = biological target: Mu-type opioid receptor (Mus musculus) (UniProt P42866); assay: Displacement of [3H]diprenorphine from mouse MOR expressed in HEK293 cell membrane at 10 uM incubated for 1 hr by radioligand displacement assay; format: cell membranes
[8] = biological target: Kappa-type opioid receptor (Mus musculus) (UniProt P33534); assay: Antagonist activity at mouse KOR expressed in HEK293 cells coexpressing EGFP/beta-arrestin2 fused NanoLuc assessed as reduction in beta-arrestin2 recruitment by measuring residual BRET signal at 10 uM preincubated with furimazine for 5 mins followed by peptide addition and measured for 30 mins by BRET assay relative to control; format: functional, cell-based; settings: filed as antagonist
[9] = biological target: T1, Kappa-type opioid receptor; assay: Displacement of [3H]diprenorphine from mouse KOR expressed in HEK293 cell membrane assessed as inhibition constant incubated for 1 hr by radioligand displacement assay; format: cell membranes
[10] = biological target: T1, Kappa-type opioid receptor; assay: Modulation of mouse KOR expressed in HEK293 cells assessed as inhibition of forskolin-induced adenylyl cyclase-dependent cAMP formation incubated for 30 mins by HTRF analysis; format: functional, cell-based
[11] = biological target: Kappa-type opioid receptor (Mus musculus) (UniProt P33534); assay: Antagonist activity at mouse KOR expressed in HEK293 cells coexpressing EGFP/beta-arrestin2 fused NanoLuc assessed as reduction in beta-arrestin2 recruitment at 10 uM preincubated with furimazine for 5 mins followed by peptide addition and measured for 30 mins by BRET assay; format: functional, cell-based
[12] = test system: Mus musculus; assay: In vivo antagonist activity at KOR in CD-1 mouse model of U50,488 induced acute thermal nociception at 10 mg/kg, sc pretreated for 24 hrs followed by U50,488 stimulation and measured after 30 to 60 mins by radiant heat tail flick assay; format: functional, organism-based; settings: time lower 24.5 hrs, time upper […]
[13] = Stability in human serum assessed as degradation at 3 mg/ml measured after 15 mins by RP-HPLC analysis; format: ADME, cell-free
[14] = biological target: T1, Kappa-type opioid receptor; assay: Partial agonist activity at mouse KOR expressed in HEK293 cells assessed as inhibition of forskolin-induced adenylyl cyclase-dependent cAMP formation incubated for 30 mins by HTRF analysis; format: functional, cell-based

## CC(C)C[C@H](NC(=O)[C@H](CCCCN)NC(=O)[C@@H]1CCCN1C(=O)[C@H](CCCNC(=N)N)NC(=O)[C@@H]1CSCSCCC(=O)N[C@@H](Cc2ccc(O)cc2)C(=O)NCC(=O)NCC(=O)N[C@@H](Cc2ccccc2)C(=O)N[C@@H](CC(C)C)C(=O)N[C@@H](CCCNC(=N)N)C(=O)N[C@@H](CCCNC(=N)N)C(=O)N1)C(=O)N[C@@H](CCCCN)C(N)=O ([Mpa]YGGFLRRCRPKLK-NH2; linker 1-9 via CH2)
[1]
  Kb: 31.6 nM
[2]
  Activity: Active
[3]
  Activity: Active
[4]
  Activity: inactive
[5]
  Activity: Active
[6]
  Activity: Active
[7]
  Activity: inactive
[8]
  Activity: 5%
[9]
  Ki: 6.8 nM

## CC(C)C[C@H](NC(=O)[C@H](CCCCN)NC(=O)[C@@H]1CCCN1C(=O)[C@H](CCCNC(=N)N)NC(=O)[C@@H]1CSCC(=O)CSCCC(=O)N[C@@H](Cc2ccc(O)cc2)C(=O)NCC(=O)NCC(=O)N[C@@H](Cc2ccccc2)C(=O)N[C@@H](CC(C)C)C(=O)N[C@@H](CCCNC(=N)N)C(=O)N[C@@H](CCCNC(=N)N)C(=O)N1)C(=O)N[C@@H](CCCCN)C(N)=O ([Mpa]YGGFLRRCRPKLK-NH2; linker 1-9 via CH2COCH2)
[4]
  Activity: inactive
[7]
  Activity: inactive
[10]
  EC50: 740 nM
[8]
  Activity: 25%
[9]
  Ki: 32 nM

## CC[C@H](C)[C@@H]1NC(=O)[C@H](CCCNC(=N)N)NC(=O)[C@H](CCCNC(=N)N)NC(=O)[C@H](CC(C)C)NC(=O)[C@H](Cc2ccccc2)NC(=O)CNC(=O)CNC(=O)[C@H](Cc2ccc(O)cc2)NC(=O)CCSCC(=O)CSC[C@@H](C(=O)N[C@@H](CCCCN)C(=O)N[C@@H](CC(C)C)C(=O)N[C@@H](CCCCN)C(=O)O)NC(=O)[C@H](CCCNC(=N)N)NC1=O ([Mpa]YGGFLRRIRCKLK-OH; linker 1-11 via CH2COCH2)
[11]
  Activity: inactive

## Oc1ccc2c3c1O[C@H]1c4[nH]c5c(c4C[C@@]4(O)[C@@H](C2)N(CC2CC2)CC[C@]314)C[C@@]1(O)[C@H]2Cc3ccc(O)c4c3[C@@]1(CCN2CC1CC1)[C@H]5O4
[12]
  Activity: Active

## CC[C@H](C)[C@@H]1NC(=O)[C@H](CCCNC(=N)N)NC(=O)[C@H](CCCNC(=N)N)NC(=O)[C@H](CC(C)C)NC(=O)[C@H](Cc2ccccc2)NC(=O)CNC(=O)CNC(=O)[C@H](Cc2ccc(O)cc2)NC(=O)CCSCSC[C@@H](C(=O)N[C@@H](CCCCN)C(=O)N[C@@H](CC(C)C)C(=O)N[C@@H](CCCCN)C(N)=O)NC(=O)[C@H](CCCNC(=N)N)NC1=O ([Mpa]YGGFLRRIRCKLK-NH2; linker 1-11 via CH2)
[4]
  Activity: inactive
[7]
  Activity: inactive

## CC[C@H](C)[C@@H]1NC(=O)[C@H](CCCNC(=N)N)NC(=O)[C@H](CCCNC(=N)N)NC(=O)[C@H](CC(C)C)NC(=O)[C@H](Cc2ccccc2)NC(=O)CNC(=O)CNC(=O)[C@H](Cc2ccc(O)cc2)NC(=O)CCSCSC[C@@H](C(=O)N[C@@H](CCCCN)C(=O)N[C@@H](CC(C)C)C(=O)N[C@@H](CCCCN)C(=O)O)NC(=O)[C@H](CCCNC(=N)N)NC1=O ([Mpa]YGGFLRRIRCKLK-OH; linker 1-11 via CH2)
[13]
  Stability: Unstable
[4]
  Activity: inactive
[6]
  Activity: Active
[7]
  Activity: inactive
[11]; filed as antagonist
  Activity: Active

## CC(C)C[C@H](NC(=O)[C@H](CCCCN)NC(=O)[C@@H]1CCCN1C(=O)[C@H](CCCNC(=N)N)NC(=O)[C@@H]1CSCC(=O)CSCCC(=O)N[C@@H](Cc2ccc(O)cc2)C(=O)NCC(=O)NCC(=O)N[C@@H](Cc2ccccc2)C(=O)N[C@@H](CC(C)C)C(=O)N[C@@H](CCCNC(=N)N)C(=O)N[C@@H](CCCNC(=N)N)C(=O)N1)C(=O)N[C@@H](CCCCN)C(=O)O ([Mpa]YGGFLRRCRPKLK-OH; linker 1-9 via CH2COCH2)
[13]
  Stability: Unstable
[14]
  EC50: 270 nM
[4]
  Activity: inactive
[7]
  Activity: inactive
[11]; filed as antagonist
  Activity: Active
[9]
  Ki: 91 nM

## CC(C)C[C@H](NC(=O)[C@H](CCCCN)NC(=O)[C@@H]1CCCN1C(=O)[C@H](CCCNC(=N)N)NC(=O)[C@@H]1CSSCCC(=O)N[C@@H](Cc2ccc(O)cc2)C(=O)NCC(=O)NCC(=O)N[C@@H](Cc2ccccc2)C(=O)N[C@@H](CC(C)C)C(=O)N[C@@H](CCCNC(=N)N)C(=O)N[C@@H](CCCNC(=N)N)C(=O)N1)C(=O)N[C@@H](CCCCN)C(=O)O ([Mpa]YGGFLRRCRPKLK-OH; disulfide 1-9)
[11]
  Activity: inactive

## CC(C)C[C@H](NC(=O)[C@H](CCCCN)NC(=O)[C@@H]1CCCN1C(=O)[C@H](CCCNC(=N)N)NC(=O)[C@@H]1CSCSCCC(=O)N[C@@H](Cc2ccc(O)cc2)C(=O)NCC(=O)NCC(=O)N[C@@H](Cc2ccccc2)C(=O)N[C@@H](CC(C)C)C(=O)N[C@@H](CCCNC(=N)N)C(=O)N[C@@H](CCCNC(=N)N)C(=O)N1)C(=O)N[C@@H](CCCCN)C(=O)O ([Mpa]YGGFLRRCRPKLK-OH; linker 1-9 via CH2)
[13]
  Stability: Unstable
[4]
  Activity: inactive
[6]
  Activity: Active
[7]
  Activity: inactive
[11]; filed as antagonist
  Activity: Active
[9]
  Ki: 77 nM

## CC[C@H](C)[C@H](NC(=O)[C@H](CCCN=C(N)N)NC(=O)[C@H](CCCN=C(N)N)NC(=O)[C@H](CC(C)C)NC(=O)[C@H](Cc1ccccc1)NC(=O)CNC(=O)CNC(=O)[C@@H](N)Cc1ccc(O)cc1)C(=O)N[C@@H](CCCN=C(N)N)C(=O)N1CCC[C@H]1C(=O)N[C@@H](CCCCN)C(=O)N[C@@H](CC(C)C)C(=O)N[C@@H](CCCCN)C(N)=O
[13]
  Stability: Unstable
[11]
  Activity: inactive
